Where two headings read alike, the source gives them in different places.

Series [1] has as its target phosphofructokinase (PFK). Further details: method as in PMID 8898332. The note with it: cited from earlier work.
Series [2] deals with T1, S. mansoni TGR (Schistosoma mansoni, UniProt Q962Y6).
T1 sequence (Q962Y6 1-598): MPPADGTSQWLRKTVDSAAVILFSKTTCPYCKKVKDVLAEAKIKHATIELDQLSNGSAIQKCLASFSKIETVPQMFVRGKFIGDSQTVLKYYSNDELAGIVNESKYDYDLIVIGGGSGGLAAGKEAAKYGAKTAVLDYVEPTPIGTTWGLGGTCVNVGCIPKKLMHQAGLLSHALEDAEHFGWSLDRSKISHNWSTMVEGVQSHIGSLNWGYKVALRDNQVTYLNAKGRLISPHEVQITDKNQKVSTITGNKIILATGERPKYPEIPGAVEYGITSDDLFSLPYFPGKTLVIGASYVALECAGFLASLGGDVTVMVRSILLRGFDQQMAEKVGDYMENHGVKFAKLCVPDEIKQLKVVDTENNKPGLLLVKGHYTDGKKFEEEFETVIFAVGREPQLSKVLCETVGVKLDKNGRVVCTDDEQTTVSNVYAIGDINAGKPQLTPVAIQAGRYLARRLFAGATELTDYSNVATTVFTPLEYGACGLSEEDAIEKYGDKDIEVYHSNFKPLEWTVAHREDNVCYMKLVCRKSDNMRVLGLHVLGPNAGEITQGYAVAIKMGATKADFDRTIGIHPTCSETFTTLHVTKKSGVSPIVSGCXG
Kind of series: biochemical. The format is biochemical. More on the design: The entire TGR ORF plus the SECIS element was subcloned into pET-24a; made in house; host or cells: Escherichia coli BL21(DE3) with pSUABC. The note with it: for Type of inhibition of TGR: reciprocal plots, TrxR and GR activities. The procedure:
The inhibitory constants (K i) were determined using Equation 1 [21]: [drawing 1] where v maxapp is the apparent v max at different inhibitor concentrations and corresponds to the value of the 1/v intercept on the reciprocal plot.
The apparent Vmax for various concentrations of inhibitors were used to calculate K i values. Concentrations of PAT are no drug (♦), 10 nM, 30 nM (▴), and 75 nM (×); and of OPZ are no drug (♦), 50 μM, 75 μM (▴), and 100 μM (×).

Series [3] deals with T1, S. mansoni TGR.
Description: (§1) Assays were performed at 25 °C in 0.1 M potassium phosphate (pH 7.4), 10 mM EDTA using 100 μM NADPH unless otherwise stated.
(§2) Initial inhibitor screens were conducted in 200 μl volumes in 96 well plates with 50 μM inhibitor, 100 μM NADPH, and 5 nM TGR in 0.1 M potassium phosphate (pH 7.4), 10 mM EDTA with a preincubation step of 15 min. […] All assays were done in triplicate.
Series [4] has as its target T1, S. mansoni TGR. The format is biochemical. Further details: The entire TGR ORF plus the SECIS element was subcloned into pET-24a; made in house; host or cells: Escherichia coli BL21(DE3) with pSUABC. The note with it: read-out: IC50 S. mansoni TGR, DTNB (TrxR activity).
Description: as §1, §2
Series [5] concerns myeloma cell line SP2/0. As to the kind of experiment: Cytotoxicity assay (sulforhodamine B). The format is cell-based. The note with it: adult worms 24 h; myeloma cells 24 h and 5 d. The procedure:
Cytotoxicity assays were performed using sulforhodamine B to determine cellular protein content as described. Briefly, myeloma cell line SP2/0 was cultured in 96-well microtiter plates containing 0.2 ml of RPMI-1640 per well at a cell density of 1,000 per well at 37 °C in 5% CO2. Cells were treated with drug concentrations (or drug carrier alone) and exposure times as indicated. After treatment, cells were fixed with 10% TCA at 4 °C for 1 h. Fixed cells were rinsed to remove fixative and then stained in 0.4% (w/v) sulforhodamine B (Sigma) in 1% acetic acid for 30 min. After washing with 1% acetic acid and dye extraction in 10 mM Tris (pH 10.5), plates were read at A564nm. The A564nm of drug-treated cells was compared to carrier-only-treated cells. The treatments were done in triplicate and the experiments repeated three times.

Series [6] deals with T1, S. mansoni TGR. The format is biochemical. More on the design: The entire TGR ORF plus the SECIS element was subcloned into pET-24a; made in house; host or cells: Escherichia coli BL21(DE3) with pSUABC. The note with it: read-out: IC50 S. mansoni TGR, GSSG (GR activity).
Description: as §1, §2
For series [7], the system named is Human TrxR1. The settings on record: read-out: Apparent Km, Human TrxR1; cited from earlier work.
Series [8] concerns Human TGR. The note with it: read-out: Apparent Km, Human TGR; cited from earlier work.
The target of series [9] is T1, S. mansoni TGR. As to the kind of experiment: Kinetic analysis of recombinant S. mansoni TGR with substrates. The procedure:
Kinetic parameters were determined using Lineweaver–Burk plots using KaleidaGraph 4 (Synergy Software, http://www.synergy.com) least squares best fit of data and varying concentrations of one substrate while maintaining the concentration of other substrates. […] All assays were done in triplicate.

Series [10] addresses T2, Human GR (Homo sapiens, UniProt P00390).
T2 sequence (P00390 44-522): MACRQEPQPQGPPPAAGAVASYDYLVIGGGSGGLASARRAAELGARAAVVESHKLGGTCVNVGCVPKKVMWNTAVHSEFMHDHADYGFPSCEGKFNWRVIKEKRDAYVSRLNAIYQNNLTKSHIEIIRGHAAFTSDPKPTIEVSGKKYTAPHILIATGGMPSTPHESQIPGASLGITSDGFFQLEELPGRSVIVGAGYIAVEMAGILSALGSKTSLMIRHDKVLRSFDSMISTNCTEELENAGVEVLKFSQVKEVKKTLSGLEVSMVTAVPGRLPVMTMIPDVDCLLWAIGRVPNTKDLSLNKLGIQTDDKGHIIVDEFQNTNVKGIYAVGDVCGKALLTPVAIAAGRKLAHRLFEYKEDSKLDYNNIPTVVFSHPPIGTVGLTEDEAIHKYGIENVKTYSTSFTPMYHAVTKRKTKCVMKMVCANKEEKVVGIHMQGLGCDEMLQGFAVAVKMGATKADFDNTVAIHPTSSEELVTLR
The note with it: read-out: Apparent Km, Human GR; cited from earlier work.

The target of series [11] is T3, Human TrxR (Homo sapiens, UniProt Q16881).
T3 sequence (Q16881 1-499 isoform Q16881-5): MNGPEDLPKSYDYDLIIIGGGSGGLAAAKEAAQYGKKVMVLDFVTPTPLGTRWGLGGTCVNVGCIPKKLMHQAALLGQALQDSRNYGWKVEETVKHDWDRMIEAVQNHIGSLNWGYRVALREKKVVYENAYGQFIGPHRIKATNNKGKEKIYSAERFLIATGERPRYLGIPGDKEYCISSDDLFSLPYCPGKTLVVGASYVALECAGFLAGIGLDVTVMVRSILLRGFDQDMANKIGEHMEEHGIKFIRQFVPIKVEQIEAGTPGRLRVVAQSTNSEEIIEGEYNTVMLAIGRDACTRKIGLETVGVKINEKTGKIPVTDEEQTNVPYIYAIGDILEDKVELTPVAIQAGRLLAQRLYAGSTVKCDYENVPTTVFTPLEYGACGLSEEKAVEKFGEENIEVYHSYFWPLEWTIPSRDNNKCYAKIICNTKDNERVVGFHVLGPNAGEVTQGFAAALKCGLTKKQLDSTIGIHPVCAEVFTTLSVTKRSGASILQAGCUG
Kind of series: Inhibition of human TrxR (DTNB/Trx). In kind it is biochemical. The settings on record: 12.5 μM compound, 200 μM disulfide substrate, preincubation 60 min at 37 °C; read-out: Percent inhibition of Human TrxR.
Excerpt: (§3) In order to assess the potential for inhibition of TGR we screened several structurally diverse series of compounds (Figure S1) known to act as inhibitors of disulfide reductases from various organisms.

Series [12] concerns the target T1, S. mansoni TGR. The note with it: rough estimation at low OPZ concentrations. How it is done: OPZ concentrations were 0 (•), 25 (□), 50 (♦), 75 (Δ), and 100 (▴) μM. All incubation mixtures included 2% final DMSO. […] The error bars in (B) and (D) represent ± the standard errors of the k obs values estimated separately at each inhibitor concentration, as obtained from nonlinear regression analysis.

Series [13] deals with T2, Human GR. Kind of series: Inhibition of human GR (GSSG). In kind it is biochemical. The note with it: 12.5 μM compound, 200 μM disulfide substrate, preincubation 60 min at 37 °C; read-out: Percent inhibition of Human GR.
Excerpt: as §3
[14] abbreviates: substrate of TGR (20 nM), 25 °C, pH 7.4, 100 μM NADPH, ± SD.

For orientation: IC50 means the concentration that gives 50% inhibition. One may read the Ki as the equilibrium dissociation constant of an inhibitor or competing ligand from its target. For `O.O.O.O=C([O-])[C@H]([O-])[C@@H]([O-])C(=O)[O-].O=C([O-])[C@H]([O-])[C@@H]([O-])C(=O)[O-].[K+].[K+].[Sb+3].[Sb+3]` [PAT, potassium antimonyl tartrate], the IC50 in [1] is 16000 nM; in series [4], 51 nM; in series [6], 37 nM. The Ki amounted to 4.86 ± 0.46 nM in series [2] (DTNB as substrate, read-out: Ki (± standard deviation), TrxR activity of TGR) and 7.22 ± 4.96 nM in series [2] (GSSG as substrate, read-out: Ki (± standard deviation), GR activity of TGR). The “Type of inhibition of TGR” value in series [2] is “noncompetitive”. Moreover, the “Activity of Enzyme (% of Uninhibited Enzyme)” value in series [3] is reported as 0%. The “Differential in toxicity between adult worms and mammalian cells” value in series [5] was “similarly large differential in toxicity”.

The term Km denotes the concentration of substrate that gives half-maximal velocity. For orientation: kcat means the number of substrate molecules converted per active site and unit of time at saturation. As usually defined, the Vmax is the rate approached at saturating substrate. For `NC(=O)C1=CN([C@@H]2O[C@H](COP(=O)(O)OP(=O)(O)OC[C@H]3O[C@@H](n4cnc5c(N)ncnc54)[C@H](OP(=O)(O)O)[C@@H]3O)[C@@H](O)[C@H]2O)C=CC1` [NADPH], the Km is 19.6 µM in series [7]; 10.7 µM in [8]; 13.7 µM in [9] (read-out: Apparent Km, S. mansoni TGR); 13.7 ± 2.4 µM in series [9] (setting [14]); 8.5 µM in series [10]. Besides, the kcat in series [9] (substrate of TGR (20 nM), 25 °C, pH 7.4, 100 μM NADPH) amounted to 20.1 s⁻¹. For the same compound, the Vmax in series [9] (setting [14]) is 25.1 ± 1.8 µM/min.

The term inhibition denotes the percentage by which the read-out fell short of the control. For `Cc1c(-c2cnccn2)ssc1=S` [OPZ, oltipraz], the inhibition at 12.5 µM in [11] amounted to 37%; in [13], 0%. Further, the Ki was 33800 ± 6000 nM in [2] (Ki (± standard deviation), GR activity of TGR, GSSG as substrate) and 18100 ± 1100 nM in [2] (Ki (± standard deviation), TrxR activity of TGR, DTNB as substrate). Besides, the “Type of inhibition of TGR” value in series [2] was “noncompetitive”. This compound also returned an activity in series [3] of 13%. The “k i, first-order rate constant for irreversible inactivation, GR assay” value in series [12] was approximately 0.04 min⁻¹. The “k i, first-order rate constant for irreversible inactivation, TrxR assay” value in series [12] is approximately 0.06 min⁻¹.

The values are drawn from publication PMC1892040 (PLoS Medicine, 2007).
